Key:
Lolium perenne (LOLPE) [1] = experiment: Example B6: post application on weeds, LOLPE; type: in vivo; settings: 312 h, after 13 days, 100 = total damage, 0 = no damage, read-out: LOLPE damage to plant
Description: (§1) Lolium perenne (LOLPE), Alopecurus myosuroides (ALOMY), Echinochloa crus-galli (ECHCG) and Avena fatua (AVEFA). Activity Against Weeds Seeds of a variety of test species were sown in standard soil in pots. After cultivation for 8 days under controlled conditions in a glasshouse (at 24/16° C., day/night; 14 hours light; 65% humidity), the plants were sprayed with an aqueous spray solution derived from the formulation of the technical active ingredient in acetone/water (50:50) solution containing 0.5% Tween 20 (polyoxyethelyene sorbitan monolaurate, CAS RN 9005-64-5). The test plants were then grown in a glasshouse under controlled conditions in a glasshouse (at 24/16° C., day/night; 14 hours light; 65% humidity) and watered twice daily. After 13 days, the test was evaluated (100=total damage to plant; 0=no damage to plant).

[2] = test system: Alopecurus myosuroides (ALOMY); experiment: Example B6: post application on weeds, ALOMY; type: in vivo; settings: 312 h, after 13 days, 100 = total damage, 0 = no damage, read-out: ALOMY damage to plant
Description: as §1

[3] = test system: Echinochloa crus-galli (ECHCG); experiment: Example B6: post application on weeds, ECHCG; type: in vivo; settings: 312 h, after 13 days, 100 = total damage, 0 = no damage, read-out: ECHCG damage to plant
Description: as §1

Avena fatua (AVEFA) [4] = experiment: Example B6: post application on weeds, AVEFA; type: in vivo; settings: 312 h, after 13 days, 100 = total damage, 0 = no damage, read-out: AVEFA damage to plant
Description: as §1

Lolium perenne (LOLPE) [5] = experiment: Example B7: pre application on weeds, LOLPE; type: in vivo; settings: 312 h, pre-emergence spray one day after sowing, evaluated after 13 days, read-out: Pre application on weeds, LOLPE (100=total damage to plant; 0=no damage to plant)
Description: as §1, with “one day” for “8 days”

[6] = test system: Alopecurus myosuroides (ALOMY); experiment: Example B7: pre application on weeds, ALOMY; type: in vivo; settings: 312 h, pre-emergence spray one day after sowing, evaluated after 13 days, read-out: Pre application on weeds, ALOMY (100=total damage to plant; 0=no damage to plant)
Description: as §1, with “one day” for “8 days”

[7] = test system: Echinochloa crus-galli (ECHCG); experiment: Example B7: pre application on weeds, ECHCG; type: in vivo; settings: 312 h, pre-emergence spray one day after sowing, evaluated after 13 days, read-out: Pre application on weeds, ECHCG (100=total damage to plant; 0=no damage to plant)
Description: as §1, with “one day” for “8 days”

Avena fatua (AVEFA) [8] = experiment: Example B7: pre application on weeds, AVEFA; type: in vivo; settings: 312 h, pre-emergence spray one day after sowing, evaluated after 13 days, read-out: Pre application on weeds, AVEFA (100=total damage to plant; 0=no damage to plant)
Description: as §1, with “one day” for “8 days”

Winter wheat (TRZAW) = experiment: Example B8: post application on wheat, with and without safener cloquintocet-mexyl; type: in vivo; settings: after 13 days, 100 = total damage, 0 = no damage
Description: Application with Safener (Cloquintocet-Mexyl) Winter wheat seeds with a seed treatment of cloquintocet-mexyl applied at a rate of 0.5 g/kg seeds were sown in standard soil in pots. After cultivation for 8 days under controlled conditions in a glasshouse (at 24/16° C., day/night; 14 hours light; 65% humidity), the plants were sprayed with an aqueous spray solution derived from the formulation of the technical active ingredient in acetone/water (50:50) solution containing 0.5% Tween 20 (polyoxyethelyene sorbitan monolaurate, CAS RN 9005-64-5). The test plants were then grown in a glasshouse under controlled conditions in a glasshouse (at 24/16° C., day/night; 14 hours light; 65% humidity) and watered twice daily. After 13 days, the test was evaluated (100=total damage to plant; 0=no damage to plant).

[9] = 250 g/ha + 0.5 g/kg seeds cloquintocet-mexyl

Structure (SMILES)	melting point	pest or weed control at 250 g/ha (Lolium perenne (LOLPE) [1]) [%]	pest or weed control at 250 g/ha [2] [%]	pest or weed control at 250 g/ha [3] [%]	pest or weed control at 250 g/ha (Avena fatua (AVEFA) [4]) [%]	pest or weed control at 250 g/ha (Lolium perenne (LOLPE) [5]) [%]	pest or weed control at 250 g/ha [6] [%]	pest or weed control at 250 g/ha [7] [%]	pest or weed control at 250 g/ha (Avena fatua (AVEFA) [8]) [%]	TRZAW damage to plant (Winter wheat (TRZAW); 62.5 g/ha + 0.5 g/kg seeds cloquintocet-mexyl)	TRZAW damage to plant (Winter wheat (TRZAW); 62.5 g/ha, without safener)	TRZAW damage to plant (Winter wheat (TRZAW); [9])	TRZAW damage to plant (Winter wheat (TRZAW); 250 g/ha, without safener)
CCOC(=O)Oc1c(-c2c(Cl)cc(C)cc2OC)c(=O)n2n1CCN(OC)CC2 [Compound P1.20]	138 to 139 °C												
CCOC(=O)Oc1c(-c2cc(C)c(C)cc2C)c(=O)n2n1CCN(OC)CC2 [Compound P1.21]	117 to 118 °C												
CCc1cc(C)cc(CC)c1C1C(=O)N2CCN(OC)CCN2C1=O [Compound P2.3, 8-(2,6-Diethyl-4-methyl-phenyl)-3-methoxy-tetrahydro-pyrazolo[1,2-a][1,2,5]triazepine-7,9-dione]	240 °C (dec.)	100	100	100	100	100	100	100	90	0	60		
CON1CCN2C(=O)C(c3cc(-c4ccc(Cl)cc4)ccc3C)C(=O)N2CC1 [Compound P2.7]	248 to 250 °C												
C#Cc1cc(C)c(C2C(=O)N3CCN(OC)CCN3C2=O)c(C)c1 [Compound P2.8]		70	60	60	40	60	80	10	10			10	40
CON1CCN2C(=O)C(c3c(C)cc(Br)cc3C)C(=O)N2CC1 [Compound P2.9]		70	60	60	60	80	80	40	20			20	60
CON1CCN2C(=O)C(c3c(Cl)cc(C)cc3Br)C(=O)N2CC1 [Compound P2.10]		90	80	80	70	100	100	100	60			20	70
CON1CCN2C(=O)C(c3c(C)cc(Cl)cc3Br)C(=O)N2CC1 [Compound P2.11]		70	70	60	60	80	80	70	50			20	50
COc1cc(C)cc(C)c1C1C(=O)N2CCN(OC)CCN2C1=O [Compound P2.12]		80	80	90	80	70	80	60	60			30	70
CON1CCN2C(=O)C(c3cc(C)c(C)cc3C)C(=O)N2CC1 [Compound P2.19]	171 to 173 °C												
CON1CCN2C(=O)C(c3c(C)cc(-c4ccc(Cl)cc4)cc3C)C(=O)N2CC1 [Compound P2.20]	258 to 260 °C												
CON1CCN2C(=O)C(c3c(C)cc(-c4ccc(F)cc4)cc3C)C(=O)N2CC1 [Compound P2.21]	292 to 294 °C												

From patent publication US9282743B2, “Chemical compounds” (Syngenta Participations AG, priority 2011, dated 2016)
